Test system: isolated human chondrocytes
Assay: Cell attachment assay (total cellular hexosaminidase)
Type: cell-based
Conditions: preliminary studies
Method: Ninety six-well, non-tissue culture plates were coated with a peptide fragment of the invention (CB12-II), a negative control peptide (USP), or human fibronectin in PBS at various concentrations overnight at room temperature in the laminar flow hood. […] Optimal binding was obtained with concentration of 10 μg/ml for CB12-II. After the plates were washed once with PBS, additional protein binding sites in the plate wells were blocked with 5% heat-denatured BSA in PBS at 37° […] for 1 hour. Freshly isolated human chondrocytes were recovered for 2 hours as described above, and then added to on substrate-coated plates at the density of 1×10^7 cells/ml (0.5-2×10^6 cells/well) and incubated at 37° C. for 1 hour. The chondrocyte suspensions were preincubated with 5 μg/ml anti-integrin blocking antibodies (from Chemicon): al (clone CB12), a2 (clone P1E6), a5, (clone DID6), α1 (clone 6S6), α2 (cloneP4H9), α3 (clone 25EW), α2β1 (clone BHA2.1), and α5β1 (clone JBS5) at 4° C. for 30 min prior to adding cells to the pre-coated wells for 1 hour at 37° C. Unattached cells were removed and the wells were washed gently twice with PBS. Bound cells were then quantitated by measuring total cellular hexosaminidase as described (36, 37). […] After a 6-h incubation, 90 μl of 50 mM glycine, 5 mM EDTA, pH 10.4 was added, and the absorbance was read at 405 nm.

Sequence: ERGPPGPQGARGFPGTPGLPGVK [CB12-II]
- coating concentration giving optimal binding of chondrocytes: 10 µg/mL

From patent US20040122209A1, “Products for regulating the degradation of collagen and methods for identifying same” (Shriners Hospital For Children, priority 2002, published 2004)
